# Experimental data: patent publication US9944602B2, “Piperidinone herbicides” (E. I. DU PONT DE NEMOURS AND COMPANY, priority 2014, dated 2018)
# Experiments:
# Type in all cases: in vivo
# [1] = test system: barnyardgrass (Echinochloa crus-galli); assay: Test A preemergence barnyardgrass; conditions: 0 to 100 scale
# Outline: (§1)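 Directed soil spray at planting gives preemergence data; foliar application to one- to two-leaf plants gives postemergence data. Response is visual injury relative to untreated controls about 10 d after treatment, scored 0–100.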
# [2] = test system: kochia (Kochia scoparia); assay: Test A preemergence kochia; conditions: Bassia scoparia, pre-emergence, 240 h, 0 to 100 scale, 0 no effect, 100 complete control, read-out: Kochia plant response rating
# Outline: as §1
# [3] = test system: ragweed (common ragweed, Ambrosia elatior); assay: Test A preemergence ragweed; conditions: Ambrosia artemisiifolia, pre-emergence, 240 h, 0 to 100 scale, 0 no effect, 100 complete control, read-out: Ragweed plant response rating
# Outline: as §1
# [4] = test system: ryegrass, Italian (Italian ryegrass, Lolium multiflorum); assay: Test A preemergence ryegrass, Italian; conditions: Lolium multiflorum, pre-emergence, 240 h, 0 to 100 scale, 0 no effect, 100 complete control, read-out: Ryegrass, Italian plant response rating
# Outline: as §1
# [5] = test system: foxtail, giant (giant foxtail, Setaria faberii); assay: Test A preemergence foxtail, giant; conditions: Setaria faberi, pre-emergence, 240 h, 0 to 100 scale, 0 no effect, 100 complete control, read-out: Foxtail, Giant plant response rating
# Outline: as §1
# [6] = test system: pigweed (Amaranthus retroflexus); assay: Test A preemergence pigweed; conditions: Amaranthus retroflexus, pre-emergence, 240 h, 0 to 100 scale, 0 no effect, 100 complete control, read-out: Pigweed plant response rating
# Outline: as §1
# [7] = test system: barnyardgrass (Echinochloa crus-galli); assay: Test A postemergence barnyardgrass; conditions: Echinochloa crus-galli, post-emergence, 240 h, 0 to 100 scale, 0 is no effect, 100 is complete control, read-out: Plant response rating, Barnyardgrass
# Outline: as §1
# [8] = test system: kochia (Kochia scoparia); assay: Test A postemergence kochia; conditions: Bassia scoparia, post-emergence, 240 h, 0 to 100 scale, 0 is no effect, 100 is complete control, read-out: Plant response rating, Kochia
# Outline: as §1
# [9] = test system: ragweed (common ragweed, Ambrosia elatior); assay: Test A postemergence ragweed; conditions: Ambrosia artemisiifolia, post-emergence, 240 h, 0 to 100 scale, 0 is no effect, 100 is complete control, read-out: Plant response rating, Ragweed
# Outline: as §1
# [10] = test system: ryegrass, Italian (Italian ryegrass, Lolium multiflorum); assay: Test A postemergence ryegrass, Italian; conditions: Lolium multiflorum, post-emergence, 240 h, 0 to 100 scale, 0 is no effect, 100 is complete control, read-out: Plant response rating, Ryegrass, Italian
# Outline: as §1
# [11] = test system: foxtail, giant (giant foxtail, Setaria faberii); assay: Test A postemergence foxtail, giant; conditions: Setaria faberi, post-emergence, 240 h, 0 to 100 scale, 0 is no effect, 100 is complete control, read-out: Plant response rating, Foxtail, Giant
# Outline: as §1
# [12] = test system: pigweed (Amaranthus retroflexus); assay: Test A postemergence pigweed; conditions: Amaranthus retroflexus, post-emergence, 240 h, 0 to 100 scale, 0 is no effect, 100 is complete control, read-out: Plant response rating, Pigweed
# Outline: as §1
# [13] = test system: wheat (Triticum aestivum); assay: Test A postemergence wheat; conditions: Triticum aestivum, post-emergence, 240 h, 0 to 100 scale, 0 is no effect, 100 is complete control, read-out: Plant response rating, Wheat
# Outline: as §1
# [14] = test system: corn (Zea mays); assay: Test A postemergence corn; conditions: Zea mays, post-emergence, 240 h, 0 to 100 scale, 0 is no effect, 100 is complete control
# Outline: as §1
# [15] = test system: blackgrass (Alopecurus myosuroides); assay: Test A postemergence blackgrass; conditions: Alopecurus myosuroides, post-emergence, 240 h, 0 to 100 scale, 0 is no effect, 100 is complete control, read-out: Plant response rating, Blackgrass
# Outline: as §1
# [16] = test system: galium (catchweed bedstraw, Galium aparine); assay: Test A postemergence galium; conditions: Galium, post-emergence, 240 h, 0 to 100 scale, 0 is no effect, 100 is complete control, read-out: Plant response rating, Galium
# Outline: as §1
# [17] = test system: rice (Oryza sativa); assay: Test B flooded paddy test rice; conditions: Oryza sativa, Table B, Flood, scale 0 to 100, read-out: Plant response rating
# Outline: (§2)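 Plants at 2-leaf stage in pots flooded 3 cm above soil; compounds applied directly into paddy water, depth kept throughout.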
# [18] = test system: sedge, umbrella (small-flower umbrella sedge, Cyperus difformis); assay: Test B flooded paddy test sedge, umbrella; conditions: Cyperus difformis, Table B, Flood, scale 0 to 100, read-out: Plant response rating
# Outline: as §2
# [19] = test system: ducksalad (Heteranthera limosa); assay: Test B flooded paddy test ducksalad; conditions: Heteranthera limosa, Table B, Flood, scale 0 to 100, read-out: Plant response rating
# Outline: as §2
# [20] = test system: barnyardgrass (Echinochloa crus-galli); assay: Test B flooded paddy test barnyardgrass; conditions: Echinochloa crus-galli, Table B, Flood, scale 0 to 100, read-out: Plant response rating
# Outline: as §2
compound,measurement,setting,value
"O=C1NCCC(c2ccc(C(F)(F)F)cc2)C1C(=O)Nc1ccccc1F (stereo not shown) [Compound 14, N-(2-fluorophenyl)-2-oxo-4-[4-(trifluoromethyl)phenyl]-3-piperidinecarboxamide]","Plant response rating, Barnyardgrass","[1]; 500 g ai/ha, 0 is no effect, 100 is complete control",90
same,pest or weed control at 125 g/ha,"[1]; Echinochloa crus-galli, pre-emergence, 240 h, 125 g ai/ha, 0 no effect, 100 complete control, read-out: Barnyardgrass plant response rating",50%
same,pest or weed control at 125 g/ha,[2]; 125 g ai/ha,0%
same,pest or weed control at 500 g/ha,[2]; 500 g ai/ha,20%
same,pest or weed control at 125 g/ha,[3]; 125 g ai/ha,0%
same,pest or weed control at 500 g/ha,[3]; 500 g ai/ha,0%
same,pest or weed control at 125 g/ha,[4]; 125 g ai/ha,0%
same,pest or weed control at 500 g/ha,[4]; 500 g ai/ha,0%
same,pest or weed control at 125 g/ha,[5]; 125 g ai/ha,30%
same,pest or weed control at 500 g/ha,[5]; 500 g ai/ha,90%
same,pest or weed control at 125 g/ha,[6]; 125 g ai/ha,0%
same,pest or weed control at 500 g/ha,[6]; 500 g ai/ha,0%
same,pest or weed control at 125 g/ha,[7]; 125 g ai/ha,20%
same,pest or weed control at 500 g/ha,[7]; 500 g ai/ha,90%
same,pest or weed control at 125 g/ha,[8]; 125 g ai/ha,0%
same,pest or weed control at 500 g/ha,[8]; 500 g ai/ha,0%
same,pest or weed control at 125 g/ha,[9]; 125 g ai/ha,0%
same,pest or weed control at 500 g/ha,[9]; 500 g ai/ha,0%
same,pest or weed control at 125 g/ha,[10]; 125 g ai/ha,0%
same,pest or weed control at 500 g/ha,[10]; 500 g ai/ha,0%
same,pest or weed control at 125 g/ha,[11]; 125 g ai/ha,30%
same,pest or weed control at 500 g/ha,[11]; 500 g ai/ha,90%
same,pest or weed control at 125 g/ha,[12]; 125 g ai/ha,0%
same,pest or weed control at 500 g/ha,[12]; 500 g ai/ha,0%
same,plant injury at 125 g/ha,[13]; 125 g ai/ha,0%
same,plant injury at 500 g/ha,[13]; 500 g ai/ha,0%
same,"Corn plant response rating (crop injury, 0 = no effect, 100 = complete kill) at 125 g/ha",[14]; 125 g ai/ha,0%
same,"Corn plant response rating (crop injury, 0 = no effect, 100 = complete kill) at 500 g/ha",[14]; 500 g ai/ha,0%
same,pest or weed control at 125 g/ha,[15]; 125 g ai/ha,0%
same,pest or weed control at 500 g/ha,[15]; 500 g ai/ha,0%
same,pest or weed control at 125 g/ha,[16]; 125 g ai/ha,0%
same,pest or weed control at 500 g/ha,[16]; 500 g ai/ha,0%
same,plant injury at 250 g/ha,[17]; 250 g ai/ha,0%
same,plant injury at 1000 g/ha,[17]; 1000 g ai/ha,0%
same,pest or weed control at 250 g/ha,[18]; 250 g ai/ha,0%
same,pest or weed control at 1000 g/ha,[18]; 1000 g ai/ha,0%
same,pest or weed control at 250 g/ha,[19]; 250 g ai/ha,80%
same,pest or weed control at 1000 g/ha,[19]; 1000 g ai/ha,100%
same,pest or weed control at 250 g/ha,[20]; 250 g ai/ha,30%
same,pest or weed control at 1000 g/ha,[20]; 1000 g ai/ha,30%
